The results in this text go back to US6444615B1, “Herbicidal imidazolidinetrione and thioxo-imidazolidinediones” (Dow AgroSciences LLC, priority 2000, dated 2002).

For orientation: melting point means the temperature, or range, at which the solid turns liquid.

For `COCC1(N2C(=O)NC(=O)C2=O)C=CC=C(OC2CC(F)CC2Cl)C1` (stereo not shown) [Compound 5, 1-methoxymethyl-3-(2-fluoro-4-chloro-5-cyclopentyloxy)phenyl-2,4,5-imidazolidinetrione], the melting point was in the range of 90 to 91 °C.
